Measurements as given in patent US9315482B2, “Derivatives useful as antiviral agents” (priority 2010, dated 2016).
Where two headings read alike, the source gives them in different places.

What was measured:
[1] = system: HEK-293T cells
[2] = Metabolic stability over human liver microsomes; type: in vitro ADME; conditions: human liver microsomes 0.5 mg/mL, 1 mM NADPH, 2.5 μM compound, 37 °C
Procedure: The metabolic stability of compounds DD771 and GAC50 has been measured over human liver microsomes
Incubation (n=2) • A solution comprising each compound is prepared at a concentration of 1 mM in DMSO. • Said solution is diluted 1/100 in a phosphate buffer containing 0.5 mg/mL of human liver microsomes, 1 mM NADPH and 5 mM MgCl2.
The final concentration of each compound in the assay is 2.5 μM (0.25% de DMSO). • After homogenization (30 s), 50 μL are taken and mixed to 50 μL acetonitrile in order to precipitate the proteins present in the medium and to solubilise the compound. • The mixture is vortexed during 3 min then sonicated during 3 min and finally centrifuged during 10 min at 15 000 g and 4° C. • The same treatment is done at times 15, 30, 45 and 60 minutes. • The supernatants are injected and analysed by LC-MS/MS following standard method. • In parallel, incubation is carried out and in duplicate by substituting the co-factor NADPH by an equivalent buffer volume. • A sample is taken at t=60 min only.
Analyse LC-MS/MS: • All the samples are analysed by UHPLC coupled to a triple quadruple Shimadzu LC-MS 3080.
Calculations: • Half life: […] • Intrinsec clearance: CLint=V×ln2/t1/2
k: disappearance rate constant (min^−1)
V=incubation volume/protein mass (μL/mg)

[3] = system: measles virus (MV); assay: Inhibition of measles virus replication in HEK-293T cells, recombinant measles virus expressing luciferase (MV-Luc); conditions: for in vitro replication of the measles virus (MV) (luciferase activity) / in vitro replication of measles virus (MV) (luciferase activity): MV-Luc; for in vitro replication of measles virus (MV) (luciferase activity): Example 37, HEK-293T cells, FIG. 11B; for in vitro replication of measles virus (luciferase activity): Example 32, HEK-293T cells, 1 M.O.I., 20, 10, 5 μg/ml, FIG. 6; for in vitro replication of measles virus (luciferase activity) / in vitro replication of measles virus expressing luciferase: 48 h; for in vitro replication of measles virus expressing luciferase: Example 33, HEK-293T cells, FIG. 7
[4] = system: herpes simplex virus 2 (HSV2); assay: Antiviral activity against herpes simplex virus 2; type: cell-based; conditions: DNA virus
[5] = system: ISRE-luciferase construct; assay: Stimulation of the ISRE-luciferase construct; type: cell-based; conditions: selection screen
[6] = system: West-Nile virus (WNV); assay: Inhibition of West-Nile virus (WNV) in HEK-293T cells, glycoprotein immunostaining; conditions: M.O.I.=1, compounds at 5 μg/ml, FIG. 1
[7] = system: coxsackievirus B3; assay: Inhibition of coxsackievirus B3 in HEK-293T cells, virus titers by TCID50; type: cell-based; conditions: 0.1 M.O.I., 10 μg/ml, 24 h, FIG. 5
Procedure: Finally, supernatants were harvested, and virus titers were determined by TCID50 (Tissue Culture Infecting Dose) on vera cells.

[8] = system: herpes simplex virus 1 (HSV1); assay: Antiviral activity against herpes simplex virus 1; type: cell-based; conditions: DNA virus
[9] = system: human parainfluenza virus type 3 (hPIV3); assay: Inhibition of human parainfluenza virus type 3 in HEK-293T cells, glycoprotein immunostaining; type: cell-based; conditions: 1 M.O.I., 2.5, 5, 10, 20 μg/ml, 48 h, FIG. 3
From the text: Culture medium was removed, and cells were fixed in 90% acetone. Infected cells were stained with a FITC-conjugated monoclonal antibody (17-038; Argene) to detect the virus glycoprotein (green fluorescence). Cells were counterstained with Evans blue (red fluorescence).

[10] = system: HEK-293T cells; assay: Cellular toxicity in HEK-293T cells (intracellular ATP, CellTiter-Glo); conditions: for cellular toxicity (intracellular ATP, CellTiter-Glo): HEK-293T cells, FIG. 12C
[11] = system: RSV B1; assay: Inhibition of human respiratory syncytial virus in MRC5 cells, flow cytometry (RSV B1); type: cell-based; conditions: M.O.I of 1, 20, 10 μg/ml, 48 h, FIG. 4
Procedure: (§1) After 24 h, cell culture medium was removed, and cells were incubated for at 37° C. in the presence RSV A2 or RSV B1 at a M.O.I of 1. […] After 48 h, cells were harvested, treated with Cytofix/Cytoperm fixation/permeabilization solution (Becton-Dickinson), and stained with anti-H antibodies (ab20391, Abeam) to detect the virus glycoprotein. The percentage of infected cells was determined by flow cytometry analysis. Interferon beta (IFN-β) was used as a reference.

[12] = system: RNA viruses; assay: Antiviral activity against nine RNA viruses (summary); conditions: 2.5 to 20 μg/ml
[13] = system: human coronavirus 229E (229E); assay: Inhibition of human coronavirus 229E in MRC5 cells, spike glycoprotein immunostaining; conditions: M.O.I.=0.01, compounds at 20 μg/ml, FIG. 1
[14] = system: dengue virus (serotype 4); assay: Inhibition of dengue virus replication in HEK-293T cells, glycoprotein immunostaining; type: cell-based; conditions: 0.1 M.O.I., 5, 10, 20 μg/ml, 72 h, FIG. 2
From the text: Culture medium was removed, and cells were fixed in 90% acetone. Finally, infected cells were stained for dengue virus glycoprotein expression using a 1/1000 dilution of a specific antibody (clone 1H10-6; Millipore) in PBS+5% goat serum.

[15] = system: RSV A2; assay: Inhibition of human respiratory syncytial virus in MRC5 cells, flow cytometry (RSV A2); type: cell-based; conditions: M.O.I of 1, 20, 10 μg/ml, 48 h, FIG. 4
Procedure: as §1

[16] = Example 36, HEK-293T cells, 24 hours, FIG. 10
[17] = Example 34, HEK-293T cells, 48 hours, FIG. 8

Question: Which melting point does the source give for `CC1(C)CC(=O)c2c(-c3cccc(Cl)c3)coc2C1` here?
Answer: 104 to 105 °C

Question: Which melting point does the source give for `COc1ccc(Cl)cc1-c1coc2c1C(=O)CCC2` here?
Answer: 136 to 137 °C

Question: For `COc1ccc(Cl)cc1C1C2=C(CCCC2=O)OC1[N+](=O)[O-]` (centres unmarked), which melting point is on record?
Answer: 171 to 172 °C

Question: Which melting point does the source give for `O=C1CCCc2occ(-c3cccc(Br)c3)c21` here?
Answer: 106 to 107 °C

Question: With `O=C1CCCc2occ(-c3cccc(F)c3)c21` as the compound, how does the melting point read?
Answer: 65 to 66 °C

Question: With `O=C1CCCc2occ(-c3ccc(Cl)cc3)c21` as the compound, how does the melting point read?
Answer: 104 to 105 °C

Question: For `O=C1CCCc2occ(-c3ccccc3Cl)c21`, which melting point is on record?
Answer: 147 to 148 °C

Question: Which melting point does the source give for `O=C1CCCC2=C1C(c1ccccc1Cl)C([N+](=O)[O-])O2` (centres unmarked) here?
Answer: 162 to 163 °C

Question: With `COc1cccc(-c2coc3c2C(=O)CCC3)c1` as the compound, how does the melting point read?
Answer: 79 to 80 °C

Question: With `O=C1CCCc2occ(-c3cc(Cl)cc(Cl)c3)c21` as the compound, how does the melting point read?
Answer: 105 to 106 °C

Question: For `O=C1CCCc2occ(-c3cccc([N+](=O)[O-])c3)c21`, which melting point is on record?
Answer: 94 to 95 °C

Question: For `CC1CC(=O)c2c(-c3cccc(Cl)c3)coc2C1` (centres unmarked), which melting point is on record?
Answer: 121 to 122 °C

Question: For `ON=C1CCCc2occ(-c3cccc(Cl)c3)c21`, which melting point is on record?
Answer: 157 to 158 °C

Question: Which melting point does the source give for `COc1cc(-c2coc3c2C(=O)CCC3)cc(OC)c1OC` here?
Answer: 140 to 141 °C

Question: For `O=C1CCCc2occ(-c3ccc(Cl)c(Cl)c3)c21`, which melting point is on record?
Answer: 122 to 123 °C

Question: For `CC(=O)C1=C(C)OC([N+](=O)[O-])C1c1cccc(Cl)c1` (centres unmarked), which melting point is on record?
Answer: 84 to 85 °C

Question: Which “cellular toxicity (intracellular ATP, CellTiter-Glo)” value (from here on “cellular toxicity”) [1] does the source give for “3-(1H-5-chloroindol-3-yl)-2-nitro-2,3-dihydrofuro[3,2-c]chromen-4-one [DD771]” here?
Answer: acceptable cytotoxicity

Question: What about the Half life [2] of the same compound?
Answer: No significative metabolism

Question: And the “Intrinsic Clearance” value [2]?
Answer: No significative metabolism

Question: What about the “in vitro replication of the measles virus (MV) (luciferase activity)” value [3, 16] of the same compound?
Answer: blocked

Question: And the “in vitro replication of measles virus (MV) (luciferase activity)” value ([3]; 24 hours)?
Answer: blocked

Question: For “3-(1H-5-fluoroindol-3-yl)-2-nitro-2,3-dihydrofuro[3,2-c]chromen-4-one [DD776]”, which “in vitro replication of the measles virus (MV) (luciferase activity)” value [3, 16] is on record?
Answer: blocked

Question: For “3-(1H-5-methylindol-3-yl)-2-nitro-2,3-dihydrofuro[3,2-c]chromen-4-one [DD778]”, which “in vitro replication of the measles virus (MV) (luciferase activity)” value [3, 16] is on record?
Answer: blocked

Question: With `O=c1oc2ccccc2c2c1C(c1c[nH]c3ccccc13)C([N+](=O)[O-])O2` (centres unmarked) [Example 123-G05, 3-(1H-Indol-3-yl)-2-nitro-2,3-dihydrofuro[3,2-c]chromen-4-one] as the compound, how does the “effects against HSV2” value [4] read?
Answer: no effects

Question: And the “ability to stimulate the ISRE-luciferase construct” value [5]?
Answer: ability to stimulate the ISRE-luciferase construct

Question: What about the “cytotoxic effects on HEK-293T cells” value [1] of the same compound?
Answer: absence of cytotoxic effects

Question: What about the “in vitro replication of WNV (glycoprotein expression by immunostaining)” value [6] of the same compound?
Answer: blocked

Question: And the “in vitro production of coxsackievirus B3 (virus titers by TCID50)” value [7]?
Answer: blocked

Question: And the “effects against HSV1” value [8]?
Answer: no effects

Question: What about the “in vitro replication of human parainfluenza virus type 3” value [9] of the same compound?
Answer: blocked

Question: What about the melting point of the same compound?
Answer: 248 to 250 °C (dec.)

Question: What about the “cellular toxicity” value [10] of the same compound?
Answer: acceptable cytotoxicity

Question: And the “in vitro replication of hRSV serotype B1 (percentage of infected cells)” value [11]?
Answer: blocked

Question: What about the “cytopathic effects at concentrations blocking RNA virus replication” value [12] of the same compound?
Answer: no detectable cytopathic effects

Question: What about the “in vitro replication of measles virus (luciferase activity)” value [3] of the same compound?
Answer: blocked

Question: And the “in vitro replication of 229E (spike glycoprotein expression by immunostaining)” value [13]?
Answer: blocked

Question: What about the “in vitro replication of dengue virus (serotype 4)” value [14] of the same compound?
Answer: blocked

Question: And the “in vitro replication of hRSV serotype A2 (percentage of infected cells)” value [15]?
Answer: blocked

Question: With `O=C1CCCc2occ(-c3cccc(Cl)c3)c21` [Example 129-G03, 3-(3-chlorophenyl)-6,7-dihydro-5H-benzofuran-4-one] as the compound, how does the “effects against HSV2” value [4] read?
Answer: no effects

Question: What about the “ability to stimulate the ISRE-luciferase construct” value [5] of the same compound?
Answer: ability to stimulate the ISRE-luciferase construct

Question: And the “in vitro replication of WNV (glycoprotein expression by immunostaining)” value [6]?
Answer: blocked

Question: What about the “in vitro production of coxsackievirus B3 (virus titers by TCID50)” value [7] of the same compound?
Answer: blocked

Question: And the “effects against HSV1” value [8]?
Answer: no effects

Question: What about the “in vitro replication of human parainfluenza virus type 3” value [9] of the same compound?
Answer: blocked

Question: What about the melting point of the same compound?
Answer: 87 to 88 °C

Question: What about the “cellular toxicity” value [10] of the same compound?
Answer: acceptable cytotoxicity

Question: And the “cytotoxic effects on HEK-293T cells” value ([10]; selection screen)?
Answer: absence of cytotoxic effects

Question: What about the “in vitro replication of hRSV serotype B1 (percentage of infected cells)” value [11] of the same compound?
Answer: blocked

Question: What about the “cytopathic effects at concentrations blocking RNA virus replication” value [12] of the same compound?
Answer: no detectable cytopathic effects

Question: And the “in vitro replication of measles virus (luciferase activity)” value [3]?
Answer: blocked

Question: What about the “in vitro replication of measles virus expressing luciferase” value [3] of the same compound?
Answer: blocked

Question: What about the “in vitro replication of the measles virus (MV) (luciferase activity)” value [3, 17] of the same compound?
Answer: blocked

Question: What about the “in vitro replication of the measles virus (MV) (luciferase activity)” value [3, 16] of the same compound?
Answer: blocked

Question: And the “in vitro replication of measles virus (MV) (luciferase activity)” value ([3]; 24 hours)?
Answer: blocked

Question: What about the “in vitro replication of 229E (spike glycoprotein expression by immunostaining)” value [13] of the same compound?
Answer: blocked

Question: And the “in vitro replication of dengue virus (serotype 4)” value [14]?
Answer: blocked

Question: And the “in vitro replication of hRSV serotype A2 (percentage of infected cells)” value [15]?
Answer: blocked

Question: For `O=C1CCCc2occ(-c3cccc(I)c3)c21` [GAC25, 3-(3-iodophenyl)-6,7-dihydro-5H-benzofuran-4-one], which melting point is on record?
Answer: 135 to 136 °C

Question: And the “in vitro replication of measles virus expressing luciferase” value [3]?
Answer: blocked

Question: What about the “in vitro replication of the measles virus (MV) (luciferase activity)” value [3, 17] of the same compound?
Answer: blocked

Question: Which half-life at 2.5 μM [2] does the source give for `C=Cc1cccc(-c2coc3c2C(=O)CCC3)c1` [GAC50, 3-(3-ethenylphenyl)-6,7-dihydro-5H-benzofuran-4-one] here?
Answer: 11.3 min

Question: What about the microsomal CLint at 2.5 μM ([2]; read-out: Intrinsic Clearance) of the same compound?
Answer: 49.1 µL/min/mg

Question: What about the melting point of the same compound?
Answer: 88 to 89 °C

Question: And the “in vitro replication of the measles virus (MV) (luciferase activity)” value [3, 17]?
Answer: blocked

Question: And the “in vitro replication of measles virus (MV) (luciferase activity)” value ([3]; 24 hours)?
Answer: blocked
